This passage reports IC50 and Ki results from BindingDB's records for doi:10.7270/Q2DF6PMF (Nmmlsc, 2007).

One assay addresses T1, N-formyl peptide receptor 2 (Homo sapiens, UniProt P25090).
T1 sequence (P25090 whole entry): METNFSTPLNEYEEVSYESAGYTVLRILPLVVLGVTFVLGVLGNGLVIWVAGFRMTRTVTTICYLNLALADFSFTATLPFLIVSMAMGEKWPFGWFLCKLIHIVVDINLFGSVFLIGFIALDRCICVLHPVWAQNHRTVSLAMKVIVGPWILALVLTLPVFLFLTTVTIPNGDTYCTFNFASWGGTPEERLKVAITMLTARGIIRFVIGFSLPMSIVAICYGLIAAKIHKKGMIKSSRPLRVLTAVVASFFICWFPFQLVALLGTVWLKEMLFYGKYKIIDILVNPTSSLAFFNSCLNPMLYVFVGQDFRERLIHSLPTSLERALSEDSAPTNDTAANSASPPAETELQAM
The assay can be described thus: concentration-dependent FPRL1 ligand displacement – cell-based, FPR counter-screen, fluorescent ligand, dose response (AID 520).
Details: not given
For orientation: The purpose of a counterscreen is to sort out artefacts and off-target activity.
With `C=CCn1c(SCCCC)nc(O)cc1=O` [1-allyl-2-(butylthio)-6-hydroxy-pyrimidin-4-one], the IC50 was above 66.7 µM.

As to `Cc1ccc(NC(=O)c2oc3ccc(S(=O)(=O)N4CCOCC4)cc3c2C)cc1C` [MLS000046288], the IC50 is above 66.7 µM.

With `C=CCN1C(=O)C2(c3ccccc31)C(C(=O)c1ccc3c(c1)OCCO3)C(=O)C(=O)N2CCCOC` (centres undefined) [(4'E)-1-allyl-4'-[2,3-dihydro-1,4-benzodioxin-6-yl(hydroxy)methylene]-1'-(3-methoxypropyl)spiro[indoline-3,5'-pyrrolidine]-2,2',3'-trione], the IC50 was above 66.7 µM and the Ki was above 40.3 µM.

The compound `CCOC(=O)c1c(NC(=O)c2cc(C3CC3)on2)sc2c1CCCC2` [2-[(5-cyclopropylisoxazole-3-carbonyl)amino]-4,5,6,7-tetrahydrobenzothiophene-3-carboxylic acid ethyl ester] gave an IC50 above 66.7 µM.

Consider `CCOC(=O)CSc1nnc(CNC(=O)c2cc(OCC)c(OCC)c(OCC)c2)n1C` [2-[[4-methyl-5-[[(3,4,5-triethoxybenzoyl)amino]methyl]-1,2,4-triazol-3-yl]thio]acetic acid ethyl ester], for which the IC50 worked out at 11.2 µM.

Take `Cc1ccc(C(=O)C2C(=O)C(=O)N(c3cc(C)on3)C2c2cccc(Br)c2)cc1` (centres undefined) [(4E)-5-(3-bromophenyl)-1-(5-methyl-1,2-oxazol-3-yl)-4-[(4-methylphenyl)-oxidanyl-methylidene]pyrrolidine-2,3-dione]: the IC50 was above 66.7 µM and the Ki is above 40.3 µM.

`O=C1CCCC(=O)C1C(C#Cc1ccccc1)C1C(=O)CCCC1=O` [3-hydroxy-2-[1-(2-hydroxy-6-keto-cyclohexen-1-yl)-3-phenyl-prop-2-ynyl]cyclohex-2-en-1-one] displayed an IC50 above 66.7 µM and a Ki above 40.3 µM.

The compound `COc1ccc2c(=O)c(N3C(=O)c4ccccc4C3=O)c(C)oc2c1` [2-(4-keto-7-methoxy-2-methyl-chromen-3-yl)isoindoline-1,3-quinone] gave an IC50 above 66.7 µM.

In turn, `COCCCN1C(=O)C(=O)C(C(=O)c2ccco2)C1c1ccccc1` (centres undefined) [3-(furan-2-carbonyl)-4-hydroxy-1-(3-methoxypropyl)-2-phenyl-2H-pyrrol-5-one] had an IC50 above 66.7 µM and a Ki above 40.3 µM.

In turn, `COc1ccc(S(=O)(=O)NC(C)C(=O)Nc2cccc(C(C)=O)c2)cc1` (centres undefined) [MLS000051414] yielded a concentration for half-maximal inhibition (IC50) above 66.7 µM.

With `CC1=C(C(=O)OC(C)C)[C@]2(C(=O)N(CC(N)=O)c3ccccc32)C(C#N)C(=N)O1` (stereo partly drawn) [(3R)-6'-amino-1-(2-amino-2-keto-ethyl)-5'-cyano-2-keto-2'-methyl-spiro[indoline-3,4'-pyran]-3'-carboxylic acid isopropyl ester], the IC50 is above 66.7 µM and the Ki was above 40.3 µM.

In turn, `COc1ccc(NC(=O)C2C3CCC(C3)C2C(=O)O)cc1OC` (centres undefined) [MLS000061524] displayed an IC50 above 66.7 µM.

Consider `O=S(=O)(Nc1cccc2ncccc12)c1cccs1` [MLS000057468], for which the IC50 was above 66.7 µM.

Consider `N[C@@H](Cc1ccc(O)c(I)c1)C(=O)O`, for which the IC50 is above 66.7 µM.

With `COc1ccc2c(=O)c(-c3cnn(-c4ccccc4)c3)c(C)oc2c1` [7-methoxy-2-methyl-3-(1-phenyl-1H-pyrazol-4-yl)-4H-chromen-4-one], the IC50 was above 66.7 µM.

`COc1ccc(C2C(C(=O)c3ccco3)C(=O)C(=O)N2CCc2ccccc2)cc1OC` (centres undefined) [2-(3,4-dimethoxyphenyl)-3-(furan-2-carbonyl)-4-hydroxy-1-(2-phenylethyl)-2H-pyrrol-5-one] gave an IC50 above 66.7 µM and a Ki above 40.3 µM.

For the compound `Cc1cc(NC(=O)CSc2nnc(Cn3c(=O)sc4ccccc43)n2-c2ccccc2C)no1` [N-(5-methyl-3-isoxazolyl)-2-[[4-(2-methylphenyl)-5-[(2-oxo-1,3-benzothiazol-3-yl)methyl]-1,2,4-triazol-3-yl]thio]acetamide], the half-maximal inhibitory concentration (IC50) was above 66.7 µM.

The same assay, now with this note: inactive by the depositor's call.
`COc1ccc(-c2cn3cccnc3n2)cc1NC(=O)CC(C)C` [MLS000045943]: the IC50 turned out to be 45 µM.

The IC50 is the point on the concentration scale where inhibition reaches its midpoint. A high value points to a need for much substance. The term Ki denotes a measure of affinity in units of concentration, obtained from inhibition or displacement. High values mean weaker binding, low ones tighter binding.
